The record followed here is patent publication US12653194B2, “Compositions and methods for promoting soil microbials for plant health and stress tolerance” (The United States of America, as represented by The …, priority 2021, dated 2026).

Bounds are passed on as bounds.

The subject of this experiment is soil microbials (fungi and bacteria). Put plainly: Peach orchard field trial: soil fungal and bacterial abundance (16S rRNA / ITS sequencing, PCA). The experiment is classed as in vivo. As to conditions: applied in 110 mL water within 15 cm of tree trunk plus 190 mL water, extract 34 HCE about 16x diluted (0.0625xHCE), 300,000 IJs per tree. The source says:
The pheromone can be extracted with alcohol in a concentration range from about 0% to about 95%. The liquid (supernatant) may be removed and concentrated to produce a dry extract by using a stream of nitrogen, by rotary evaporation, by lyophilization, or by any equivalent means. The dry powder may be resuspended in water and centrifuged to separate insoluble debris from water-soluble pheromones. For storage the supernatant may be concentrated to dryness using a lyophilizer, a spray drier, or any equivalent means. The concentration and ratio of the pheromone mixture was evaluated for its activity on plants. […] In addition, for example, one insect host cadaver extract from Galleria mellonella (average weight of G. mellonella larvae, wax worm, is estimated to be approximately 232+/−57 mg) is diluted in 200 μL water which is physiologically relevant concentration as 1×HCE. When one insect host cadaver extract from Galleria mellonella is resuspended in 3200 μL (about 16 times dilution or 0.0625×HCE). Total 34 HCE S. carpocapsae pheromone extracts with 300,000 S. carpocapsae IJs in 110 mL of water in 15 cm soil surrounding the tree trunk. Then an additional 190 mL of water was added to the 15 cm of soil surrounding the tree trunk. […]

Turning to `CCOP(=S)(OCC)Oc1nc(Cl)c(Cl)cc1Cl` [Chlorpyrifos], the “time for which soil microbials were promoted / soil microbial abundance increased” value is ≤ 2 weeks.
